Laboratory results as given in patent publication US6423737B1, “Benzamidoxime prodrugs as antipneumocystic agents” (The University of North Carolina at Chapel Hill, priority 1995, dated 2002).

Experiments:
Pneumocystis carinii [1] = assay: Anti-P. carinii activity in immunosuppressed rat model (lung cyst counts); type: in vivo, Sprague-Dawley rats; conditions: for anti-P. carinii activity / mean cyst counts when given intravenously (in words): Formula I amidoximes, intravenous; for % saline, ORAL DOSING / % saline, IV DOSING: Table 2; for % saline, ORAL DOSING: oral by gavage daily for 14 days @33 μmol/kg body weight; for % saline, IV DOSING: tail vein injection daily for 14 days at 22 mg/kg body weight; for anti-P. carinii activity when given orally (in words): Formula I series, orally by gavage once daily for 14 days
Experimental: The activity of the compounds of Formula I against P. carinii was carried out according to an established method. See Tidwell, R. R., et al., J. Protozool. […] Agents Chemother. […] Agents Chemother. […] Briefly, male Sprague-Dawley rats (barrier raised, not certified virus-free) weighing 150-200 g each, were obtained (Hilltop Laboratories, Scottsdale, Pa.). Immediately upon arrival, the animals were caged individually and begun on a low protein (8%) diet and on drinking water containing tetracycline (0.5 mg/mL) and dexamethasone (1.0 μ/mL). This regimen was continued for eight weeks. At the beginning of the seventh week, animals were divided into groups of 8 or more, and the test compounds were administered for 14 days. Saline and pentamidine-treated groups were included as controls.
Animals were sacrificed at the end of the eighth week by chloroform inhalation. The left lung was weighed, ground through a No. 60 wire mesh screen, and suspended 1:10 (wt/vol) in 10 mM β-mercaptoethanol-Hanks' balanced salts solution (HBSS) without cations. Slides were prepared by spotting 5 μL of lung homogenate diluted 1:10 in HBSS with β-mercaptoethanol and allowed to air dry. The slides were stained with cresyl violet, and the cysts were counted by a blinded protocol. The number of cysts per gram of original lung tissue was calculated, and the groups were reported as the percentages of saline-treated controls.
The anti-P. carinii value for each compound is expressed as the percent of cysts in the treatment group as compared to the saline control group. Values are also compared to a positive control group consisting of animals treated intravenously with pentamidine.

[2] = Subjective scale of toxicity and tolerance during treatment in the immunosuppressed rat model; conditions: subjective scale
Excerpt: ^b subjective scale of toxicity. […] In general, the larger the value the more severe the toxicity, with values greater than 2 indicating the death of some animals

Pneumocystis carinii [3] = conditions: immunosuppressed rat model, D. W. Boykin et al., J. Med. Chem. 38, 912 (1995); cited from earlier work
[4] = In vitro metabolism by rat tissue homogenate 9000×g supernatants (HPLC); type: in vitro ADME; conditions: for metabolism by rat liver homogenate 9000×g supernatants: 167 μM substrate plus cofactor solution, 37EC, 10 minutes, FIG. 1
Experimental: In vitro metabolism of diamidoximes 1, 3, 5, and 7 by rat liver homogenate 9000×g supernatants, post-mitochondrial 105,000×g supernatants or microsomal fractions were performed as previously described in B. J. Berger et al., Antimicrob. Agents and Chemotherapy 36, 1825-1831 (1992); B. J. Berger et al., J. Pharmacol. Experimental Therapeutics 256, 883-89 (1991). Briefly, adult male Sprague-Dawley rats, barrier raised, (Hilltop Laboratories, Scottsdale, Pa.) animals were given water and rat chow (Agway, Syracuse, N.Y.) ad libitum. The rats were euthanized by decapitation, the livers removed immediately, rinsed with 50 mM potassium phosphate buffer, pH 7.4, and placed on ice. All subsequent steps were performed at 4EC. The livers were minced, homogenized, and 9000×g supernatants, 105,000×g or 105,000×g microsomal pellets prepared. Each fraction was assayed for protein content as described in M. M. Bradford, Anal. Biochem. 72, 248-254 (1976) and stored at −80EC. Fractions from the rat kidneys, lungs, hearts and brains were prepared similarly.
Reaction mixtures consisted of 1.5 mL 50 mM potassium phosphate buffer, pH 7.4, 0.5 mL cofactor solution (2 mg/mL NADPH, 1.6 mg/mL MgCl2, 1.04 mg/mL glucose-6-phosphate and 2 units/mL glucose-6-phosphate dehydrogenase in 50 mM potassium phosphate buffer pH 7.4), 0.5 mL tissue homogenate and 0.5 mL of the appropriate diamidoxime substrate at a concentration of 167 μM. Reactions were started by adding substrate, then mixtures were incubated at 37EC in a shaking water bath for times shown in the figures. Reactions were terminated by extracting over C18 cartridges and assaying as described below.
(§1) Samples were extracted using solid phase extraction and assayed using high performance liquid chromatography (HPLC) by methods similar to those previously described in Berger et al. (1992) and Berger et al., (1991), supra. Briefly, samples spiked with 2,5-bis[4-(N-isopropylamidino)phenyl]furan dihydrochloride as the internal standard (IS) were extracted over activated C18 Bond Elut cartridges (Varian Associates, Sunnydale, Calif.), washed with water, 100% acetonitrile, then eluted with 75% acetonitrile/25% water containing 15 mm triethylamine and 35 mM acetic acid. The diamidoxime substrates elute in the 100% acetonitrile phase, while mono-amidine and diamidine products elute in the acetonitrile/water mixture containing triethylamine and acetic acid. Elutes were evaporated to dryness at 40EC under a gentle stream of nitrogen and resuspended in HPLC grade water.
Compounds were resolved using a Hewlett-Packard (Avondale, Pa.) model 1090 HPLC equipped with a HP 1050 variable wavelength detector set at 265 nm, a 4.6×250 mm Zorbax RX diisopropyl C8 column (Mac-Mod, Chadd's Ford, PA) maintained at 40EC and a Vectra 486/66U computer with HP Chemstations software. The mobile phase consisted of 15 mM triethylamine and 35 mM acetic acid in HPLC grade water for pump A, and 15 mM triethylamine and 35 mM acetic acid in 75% acetonitrile in water for pump B. The solvent flow rate was 1.5 mL/min, and the solvent gradient ran from 0% B to 25% B at 22 min, to 40% B at 25 min, then 90% B at 35 min. All solvents and reagents used for the assays were HPLC grade. Quantities of metabolites formed were calculated, using peak area rations of authentic standard, from standard addition curves generated by spiking standards into tissue homogenates or tissue culture medium.

BRL 3A hepatocytes = assay: Metabolism in intact cultured cells (HPLC of culture supernatants); type: in vitro ADME; conditions: 10 μM substrate, 24 hours, 37EC; extracellular medium assayed; FIG. 4
Experimental: Metabolic experiments with intact cultured cells were performed using the BRL 3A hepatocyte line, obtained from the UNC-Chapel Hill Lineberger Tissue Culture Facility. Cells were routinely cultured in Costar (Cambridge, Mass.) 25 cm^2 of tissue culture flasks at 37EC under moist 5% CO2 and 95% air in Ham's F-12 medium (Gibco, Gaithersburg, Md.) containing 5% fetal bovine serum (HyClone Laboratories Inc., Logan, Utah). Confluent cultures were treated with 0.25% trypsin solution (Sigma Chemical Co., ST. Louis Mo.), then approximately 2×10^5 cells/well subcultured into Costar 6-well tissue culture chambers and the cells allowed to grow to confluency. Ten mL fresh medium was added to each culture well and incubations were started by adding 100 μL amidoxime solution (prepared in sterile water) to a final concentration of 10 μM. Cell cultures were incubated at 37EC under moist 5% CO2 and 95% air for 24 hours, then aliquots of culture supernatants extracted and assayed for metabolites as described below. Similar metabolic experiments were performed with cultured J774 A.1 mouse monocyte-macrophage cells cultured in DMEM F-12 medium containing 10% fetal bovine serum and H9c2 rat heart myoblast cells cultured in DMEM H medium containing 10% fetal bovine serum.
as §1
Compounds were resolved using a Hewlett-Packard (Avondale, Pa.) model 1090 HPLC equipped with a HP 1050 variable wavelength detector set at 265 nm, a 4.6×250 mm Zorbax RX diisopropyl C8 column (Mac-Mod, Chadd's Ford, PA) maintained at 40EC and a Vectra 486/66U computer with HP Chemstations software. […] Quantities of metabolites formed were calculated, using peak area rations of authentic standard, from standard addition curves generated by spiking standards into tissue homogenates or tissue culture medium.

[5] = Acute toxicity of single doses in normal rats; type: in vivo; conditions: for time after injection to recovery: single IV 80 μmol/kg; for overt toxic responses after single oral doses: single oral doses as high as 160 μmol/kg; for overt acute adverse reactions following single intravenous injections, compared to the bis-benzamidines: single tail vein injection; for time after injection to recovery / persistence of symptoms: single IV 160 μmol/kg

| Structure (SMILES) | anti-P. carinii activity / mean cyst counts when given intravenously (in words) (Pneumocystis carinii [1]) | % saline, ORAL DOSING (Pneumocystis carinii [1]) [% saline] | % saline, IV DOSING (Pneumocystis carinii [1]) [% saline] | metabolism by rat liver homogenate 9000×g supernatants [4] | metabolism in intact BRL 3A hepatocytes (BRL 3A hepatocytes) | observed acute toxicity after single intravenous injection ([5]; normal rats, 80 μmol/kg) | time after injection to recovery ([5]; normal rats) [min] | overt toxic responses after single oral doses ([5]; normal rats) | overt acute adverse reactions following single intravenous injections, compared to the bis-benzamidines ([5]; normal rats) | anti-P. carinii activity when given orally (in words) (Pneumocystis carinii [1]) | observed acute toxicity after single intravenous injection ([5]; normal rats, 160 μmol/kg) | time after injection to recovery / persistence of symptoms ([5]; normal rats) | further results |
| --- | --- | --- | --- | --- | --- | --- | --- | --- | --- | --- | --- | --- | --- |
| N=C(N)c1ccc(-c2ccc(-c3ccc(C(=N)N)cc3)o2)cc1 [Compound 9, 2,5-bis-[4-amidinophenyl]furan, reference compound] |  |  |  |  |  |  |  |  |  |  |  |  | activity on oral administration, furan series (in words) (Pneumocystis carinii [1]; immunosuppressed rat model, orally by gavage): significantly less; Toxicity, IV DOSING ([2]; 0.03 μmol/kg/day): 0; Toxicity, IV DOSING ([2]; 0.3 μmol/kg/day): 0; Toxicity, IV DOSING ([2]; 2.7 μmol/kg/day): 0; Toxicity, IV DOSING ([2]; 13.3 μmol/kg/day): 0; Toxicity, IV DOSING ([2]; 26.6 μmol/kg/day): +1; Toxicity, ORAL DOSING ([2]; 39.8 μmol/kg/day): 0; Toxicity, ORAL DOSING ([2]; 66.3 μmol/kg/day, larger = more severe): 0; activity and toxicity compared with pentamidine on intravenous dosage (Pneumocystis carinii [3]): more active and less toxic than pentamidine |
| NC(=NO)c1ccc(OCCCCCOc2ccc(C(N)=NO)cc2)cc1.O=C(O)/C=C\C(=O)O.O=C(O)/C=C\C(=O)O [Compound 1, 1,5-bis(4′-(N-hydroxyamidino)phenoxy)pentanedi-hemimaleinate] | significantly reduced compared to saline controls | 19.27 | 0.15 | forming large quantities of the monoamidine-monoamidoxime derivative, and smaller amounts of pentamidine | metabolized predominantly to the corresponding diamidine | Minor toxic responses, including barely observable hindleg ataxia and slight hypoactivity | 5 | No overt toxic responses | greatly reduced |  |  |  | metabolism by 9000×g supernatants of homogenates of rat liver, kidney, lung and heart ([4]; FIG. 3A-3D): into its amidine analog pentamidine; observed acute toxicity after single intravenous injection ([5]; normal rats, bolus injections above 120 μmol/kg): severe dyspnea and profound hypoactivity; observed acute toxicity after single intravenous injection ([5]; normal rats, from 20 to 60 μmol/kg): no observable adverse reactions |
| COc1cc(C(N)=NO)ccc1OCCCOc1ccc(C(N)=NO)cc1OC.O=C(O)/C=C\C(=O)O.O=C(O)/C=C\C(=O)O [Compound 7, 1,3-bis(2′-methoxy-4′-(N-hydroxyamidino)phenoxy)propanedi-hemimaleinate] | significantly reduced compared to saline controls | 3.71 | 0.03 | metabolized similarly | metabolized predominantly to the corresponding diamidine | only very minor hypoactivity and dyspnea | 5 | No overt toxic responses | greatly reduced | most active | pronounced hypoactivity, dyspnea, cyanosis, and increased salivation and lacrimation | approximately 10 minutes | observed acute toxicity after single intravenous injection ([5]; normal rats, 20 or 40 μg/kg): no observable adverse effects |
| NC(=NO)c1ccc(OCCCOc2ccc(C(N)=NO)cc2)cc1.O=C(O)/C=C\C(=O)O.O=C(O)/C=C\C(=O)O [Compound 5, 1,3-bis(4′-(4-hydroxyamidino)phenoxy)propanedi-hemimaleinate] | significantly reduced compared to saline controls | 2.25 | 0.03 | metabolized similarly | metabolized predominantly to the corresponding diamidine |  |  | No overt toxic responses | greatly reduced | most active | only minor ataxia and/or hypoactivity | 5 min | observed acute toxicity after single intravenous injection ([5]; normal rats, 20, 40 or 80 μmol/kg): no overt toxicity |
